Assay results reported in PubChem BioAssay (NCI).
Several values for one entry are separate records, joined by “and”; a condition that tells them apart may be missing. Identical values can stand only once.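 Grown in 96-well plates, cells were treated for 48 hours with each compound at five concentrations. Insufficient inhibition: endpoint recorded as highest concentration tested. The concentration for 50% growth inhibition is given as GI50. TGI is the concentration that stops growth completely.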

Columns and labels:
Assay in all cases: NCI anticancer screen, dose series, 48 h
BT-549 breast = tested on: BT-549 breast
MDA-MB-231 breast = tested on: MDA-MB-231 breast
NCI-H226 lung = tested on: NCI-H226 lung
ACHN renal = tested on: ACHN renal
LOX IMVI melanoma = tested on: LOX IMVI melanoma
K-562 leukemia = tested on: K-562 leukemia
T-47D breast = tested on: T-47D breast
SN12C renal = tested on: SN12C renal
NCI/ADR-RES ovarian = tested on: NCI/ADR-RES ovarian
HCT-116 colon = tested on: HCT-116 colon

SMILES	GI50 (BT-549 breast)	TGI (BT-549 breast)	GI50 (MDA-MB-231 breast)	TGI (MDA-MB-231 breast)	GI50 (NCI-H226 lung)	TGI (NCI-H226 lung)	GI50 (ACHN renal)	TGI (ACHN renal)	GI50 (LOX IMVI melanoma)	TGI (LOX IMVI melanoma)	GI50 (K-562 leukemia)	TGI (K-562 leukemia)	GI50 (T-47D breast)	TGI (T-47D breast)	GI50 (SN12C renal)	TGI (SN12C renal)	GI50 (NCI/ADR-RES ovarian)	TGI (NCI/ADR-RES ovarian)	GI50 (HCT-116 colon)	TGI (HCT-116 colon)
CCCCCCCCCCCCNC(=O)[C@H]1CSC(c2ccsc2)N1 (some centres undefined)	797 nM	1.58 µM	946 nM	1.74 µM	0.896 µM	1.74 µM	938 nM	1.75 µM	824 nM	1.64 µM	1020 nM	2.04 µM	976 nM	2020 nM	911 nM	1.64 µM	1230 nM	2.56 µM	908 nM	1.71 µM
Cc1cc(Nc2cc(N3CCN(C)CC3)nc(C#Cc3ccccc3)n2)n[nH]1	4680 nM	17.8 µM	3820 nM	16.5 µM	2.17 µM	14.3 µM	1060 nM	11.7 µM	1850 nM	12.8 µM	3790 nM	24.4 µM	4860 nM	23000 nM	2400 nM	14.2 µM	4980 nM	28.8 µM	1400 nM	12.7 µM
Oc1cccc(-c2nc(N3CCOCC3)c3oc4ncccc4c3n2)c1	51.5 nM and 36 nM	1.18 µM and 1.15 µM	340 nM and 300 nM	54.5 µM and 33.2 µM	4.12 µM and 7.21 µM	78.6 µM and 68.3 µM	87.8 nM and 164 nM		158 nM and 151 nM	2.33 µM and 3.02 µM	1350 nM and 2180 nM	> 100 µM	212 nM and 192 nM	1340 nM and 814 nM	92.3 nM and 136 nM	> 100 µM	147 nM and 225 nM		530 nM and 426 nM	> 100 µM
O=C1c2c(O)ccc(O)c2C(=O)c2c(NCCNCCO)ccc(NCCNCCO)c21		0.5 µM and 2.11 µM and 0.54 µM		1.45 µM and 2.38 µM and 1.11 µM		0.0547 µM and 0.1 µM and 0.136 µM		0.123 µM and 0.783 µM and 0.229 µM		0.191 µM and 0.571 µM and 0.706 µM	142 nM	1.71 µM and 1.78 µM		1050 nM and 652 nM and 1500 nM		0.162 µM and 1.57 µM and 0.214 µM	1410 nM and 1640 nM and 3860 nM	> 100 µM and 50 µM and 23.9 µM	45.1 nM	0.327 µM and 1.23 µM and 0.858 µM
C=C[C@@]1(C)CC(=O)[C@]2(O)[C@@]3(C)[C@@H](O)CCC(C)(C)[C@@H]3[C@H](O)[C@@H](OC(C)=O)[C@@]2(C)O1		> 100 µM		> 100 µM		> 100 µM		> 100 µM		> 100 µM		> 100 µM		> 100000 nM		> 100 µM		> 100 µM		> 100 µM
COc1ccc(-c2nn3ncccc3c2-c2ccnc(Nc3cccc(C(F)(F)F)c3)n2)cc1	12400 nM	> 25 µM	8120 nM	> 25 µM	9.16 µM	> 25 µM	6700 nM	> 25 µM	6530 nM	> 25 µM	8040 nM	> 25 µM	6530 nM	> 25000 nM	8030 nM	> 25 µM	6160 nM	> 25 µM	7990 nM	> 25 µM
COc1ccc(-c2conc2-c2ccccc2)cc1	940 nM	12.8 µM	615 nM	> 27.5 µM	2.42 µM	> 25.6 µM	1100 nM	> 100 µM	612 nM	> 100 µM	60.3 nM	> 100 µM	329 nM	> 100000 nM	1000 nM	> 100 µM	142 nM	> 100 µM	318 nM	> 100 µM
COC12C=C/C(=C(/C(=O)OCc3csc(SC)n3)C(=O)CCCCCCCCC3(OC)C=C/C(=C(/C(=O)OCc4cnc(SC)s4)C(=O)CCCCCCCC1)O3)O2 (centres undefined)	4530 nM	69.8 µM	2510 nM	26.2 µM	3.48 µM	17.1 µM	2510 nM	28.9 µM	1200 nM	3.53 µM	3190 nM	> 100 µM	2940 nM	> 100000 nM	3630 nM	> 100 µM	31300 nM	> 100 µM	439 nM	10.9 µM
CCOC(=O)C(=Cc1c(-c2ccccc2)[nH]c2ccccc12)C(=O)OCC	5170 nM	38.5 µM	5710 nM	34.8 µM	11.3 µM	34.7 µM	4340 nM	23.6 µM	5580 nM	19.4 µM	3600 nM	24 µM	2620 nM	8430 nM	5040 nM	55 µM	2840 nM	14.6 µM	4250 nM	16 µM
COc1ccc2c(c1)c(-c1cc(-c3cn(C)c4ccc(OC)cc34)[nH]n1)cn2C	> 100000 nM	> 100 µM	> 100000 nM	> 100 µM	> 100 µM	> 100 µM	> 100000 nM	> 100 µM	> 100000 nM	> 100 µM	> 100000 nM	> 100 µM	> 100000 nM	> 100000 nM	> 100000 nM	> 100 µM	> 100000 nM	> 100 µM	> 100000 nM	> 100 µM
Cc1cc2c(-c3nc4ccccn4c3NC34CC5CC(CC(C5)C3)C4)c(O)c(O)cc2c(O)c1-c1c(C)cc2c(-c3nc4ccccn4c3NC34CC5CC(CC(C5)C3)C4)c(O)c(O)cc2c1O	105 nM	5.96 µM	763 nM	11.4 µM	0.929 µM	5.98 µM	785 nM	2.88 µM	412 nM	3.38 µM	152 nM	4.93 µM	187 nM	2490 nM	716 nM	> 25 µM	1050 nM	> 25 µM	88.9 nM	6.22 µM
NCCn1c2c(c3ccccc3c1=O)C(=O)c1ccccc1-2	2420 nM	10.1 µM	431 nM	1.49 µM	0.452 µM	3.02 µM	< 45.3 nM	0.31 µM	347 nM	1.78 µM	231 nM	3.46 µM	308 nM	1280 nM	266 nM	2.13 µM	647 nM	3.3 µM	234 nM	1.56 µM
CCCC(=O)Nc1cn(COC)c(C(=O)N2C[C@H]3C[C@@]34C2=CC(=O)c2[nH]cc(C)c24)n1	5510 nM	43.1 µM and 58.9 µM	10700 nM	39.7 µM and > 100 µM		39.4 µM		50 µM and > 100 µM	3130 nM	35.4 µM and > 100 µM	7410 nM	50 µM and > 100 µM	2910 nM	25400 nM and 34800 nM	5550 nM	42.9 µM and 71.2 µM	12000 nM	15.8 µM and 43.6 µM	2320 nM	50 µM and 12 µM
